Assay [1] concerns SARS-CoV-2 (USA_WA1/2020). Briefly: Antiviral Activity from SARS-CoV-2 Infection (cytopathic effect, Cell Titer-Glo). Particulars: Severe acute respiratory syndrome coronavirus 2, Vero C1008, 72 h, tested alone or with P-gp inhibitor CP-100356 2 μM (table does not say which). In kind it is cell-based. (Cytopathic effects are the visible damage that an infection or toxin causes in cultured cells.)

The target of another assay is T1, SARS-CoV-2 3CL protease (Severe acute respiratory syndrome coronavirus 2, UniProt P0DTD1).
T1 construct: measures the activity of full-length SARS-CoV-2 3CL protease
The assay is described as follows: SARS-CoV-2 Coronavirus 3C Protease FRET Assay. It counts as biochemical. Conditions: Morrison equation fit, 15 nM enzyme, 25 μM peptide substrate.

The mark [2] stands for this setting: Examples 14-78 and 114 (second head of Table 2), read-out: Geometric Mean Ki (nM) IC50.
Where [3] appears, read: VeroE6 cells enriched for hACE2, MOI 0.002, 3-day incubation, read-out: Geometric Mean EC50.
[4] abbreviates: Examples 1-13, 60 minutes at 23° C., read-out: Geometric Mean Ki.

Drawing on US20250304559A1, “Ether-Linked Antiviral Compounds” (Pfizer Inc., priority 2021, published 2025), this text covers EC50 and Ki for 17 molecules.

One may read the EC50 as the concentration at which the effect is half-maximal. For orientation: Ki means the equilibrium dissociation constant of an inhibitor or competing ligand from its target.

Molecules are shown by their SMILES. Counter-ions that a name gives are not always drawn. Like-named read-outs stand apart in the source and are kept apart here.

Regarding `CC(C)(C)[C@H](NS(=O)(=O)C(F)(F)F)C(=O)N1C[C@H]2[C@@H]([C@H]1C(=O)N[C@@H](C[C@@H]1CCNC1=O)C(=O)COc1ccc(F)cc1)C2(C)C` [Example 29, (1R,2S,5S)-N-{(2S)-4-(4-fluorophenoxy)-3-oxo-1-[(3S)-2-oxopyrrolidin-3-yl]butan-2-yl}-6,6-dimethyl-3-[3-methyl-N-(trifluoromethanesulfonyl)-L-valyl]-3-azabicyclo[3.1.0]hexane-2-carboxamide], the EC50 in assay [1] (read-out: Geometric Mean EC50 (nM), VeroE6 cells enriched for hACE2, MOI 0.002, 3-day incubation) was 57 nM. The Ki on SARS-CoV-2 3CL protease (setting [2]) is 4.69 nM.

Regarding `Cc1cc(OCC(=O)[C@H](C[C@@H]2CCNC2=O)NC(=O)[C@@H]2[C@@H]3[C@H](CN2C(=O)[C@@H](NC(=O)C(F)(F)F)C(C)C)C3(C)C)no1` [Example 61, (1R,2S,5S)-6,6-dimethyl-N-{(2S)-4-[(5-methyl-1,2-oxazol-3-yl)oxy]-3-oxo-1-[(3S)-2-oxopyrrolidin-3-yl]butan-2-yl}-3-[N-(trifluoroacetyl)-L-valyl]-3-azabicyclo[3.1.0]hexane-2-carboxamide], the EC50 in assay [1] (setting [3]) was 1800 nM. Further, the Ki on SARS-CoV-2 3CL protease (setting [2]) was 31.7 nM.

Consider `CC(C)[C@H](NC(=O)C(F)(F)F)C(=O)N1C[C@H]2[C@@H]([C@H]1C(=O)N[C@@H](C[C@@H]1CCNC1=O)C(=O)COc1cc(C(F)(F)F)nn1C)C2(C)C` [Example 9, (1R,2S,5S)-6,6-dimethyl-N-{(2S)-4-{[1-methyl-3-(trifluoromethyl)-1H-pyrazol-5-yl]oxy}-3-oxo-1-[(3S)-2-oxopyrrolidin-3-yl]butan-2-yl}-3-[N-(trifluoroacetyl)-L-valyl]-3-azabicyclo[3.1.0]hexane-2-carboxamide, trifluoroacetate salt], for which the EC50 in assay [1] (setting [3]) came to 265 nM. In addition, the Ki at SARS-CoV-2 3CL protease (setting [4]) amounted to 42.8 nM.

As for `CCn1nc(C)cc1OCC(=O)[C@H](C[C@@H]1CCNC1=O)NC(=O)[C@@H]1[C@@H]2[C@H](CN1C(=O)[C@@H](NC(=O)C(F)(F)F)C(C)(C)C)C2(C)C` [Example 27, (1R,2S,5S)-N-{(2S)-4-[(1-ethyl-3-methyl-1H-pyrazol-5-yl)oxy]-3-oxo-1-[(3S)-2-oxopyrrolidin-3-yl]butan-2-yl}-6,6-dimethyl-3-[3-methyl-N-(trifluoroacetyl)-L-valyl]-3-azabicyclo[3.1.0]hexane-2-carboxamide], the EC50 in assay [1] (setting [3]) was 422 nM. In addition, at SARS-CoV-2 3CL protease (setting [2]), the Ki turned out to be 8.84 nM.

With `COC(=O)N[C@H](C(=O)N1C[C@H]2[C@@H]([C@H]1C(=O)N[C@@H](C[C@@H]1CCNC1=O)C(=O)COc1cccc(Cl)c1)C2(C)C)C(C)C` [Example 25, methyl {(2S)-1-[(1R,2S,5S)-2-({(2S)-4-(3-chlorophenoxy)-3-oxo-1-[(3S)-2-oxopyrrolidin-3-yl]butan-2-yl}carbamoyl)-6,6-dimethyl-3-azabicyclo[3.1.0]hexan-3-yl]-3-methyl-1-oxobutan-2-yl}carbamate], the EC50 in assay [1] (setting [3]) turned out to be 38.2 nM. Also, the Ki on SARS-CoV-2 3CL protease (setting [2]) was found to be 1.76 nM.

In the case of `CC(C)(C)[C@H](NS(=O)(=O)C(F)(F)F)C(=O)N1C[C@H]2[C@@H]([C@H]1C(=O)N[C@H](C[C@@H]1CCNC1=O)C(=O)COc1ccc(F)cc1F)C2(C)C` [Example 68, (1R,2S,5S)-N-{(2R)-4-(2,4-difluorophenoxy)-3-oxo-1-[(3S)-2-oxopyrrolidin-3-yl]butan-2-yl}-6,6-dimethyl-3-[3-methyl-N-(trifluoromethanesulfonyl)-L-valyl]-3-azabicyclo[3.1.0]hexane-2-carboxamide], the EC50 in assay [1] (setting [3]) was 97 nM. Also, on SARS-CoV-2 3CL protease (setting [2]), the Ki amounted to 129 nM.

As for `CC(C)[C@H](NC(=O)C(F)(F)F)C(=O)N1C[C@H]2[C@@H]([C@H]1C(=O)N[C@@H](C[C@@H]1CCNC1=O)C(=O)COc1ccccc1F)C2(C)C` [Example 47, (1R,2S,5S)-N-{(2S)-4-(2-fluorophenoxy)-3-oxo-1-[(3S)-2-oxopyrrolidin-3-yl]butan-2-yl}-6,6-dimethyl-3-[N-(trifluoroacetyl)-L-valyl]-3-azabicyclo[3.1.0]hexane-2-carboxamide], the EC50 in assay [1] (setting [3]) worked out at 59.7 nM. The Ki at SARS-CoV-2 3CL protease (setting [2]) came to 8.58 nM.

For `COc1ccc(COCC(=O)[C@H](C[C@@H]2CCNC2=O)NC(=O)[C@@H]2[C@@H]3[C@H](CN2C(=O)[C@@H](NC(=O)C(F)(F)F)C(C)(C)C)C3(C)C)cc1` [Example 14, (1R,2S,5S)-N-{(2S)-4-[(4-methoxyphenyl)methoxy]-3-oxo-1-[(3S)-2-oxopyrrolidin-3-yl]butan-2-yl}-6,6-dimethyl-3-[3-methyl-N-(trifluoroacetyl)-L-valyl]-3-azabicyclo[3.1.0]hexane-2-carboxamide], in assay [1] (setting [3]), the EC50 was 48.7 nM. Also, at SARS-CoV-2 3CL protease (setting [2]), the Ki was determined as 3.48 nM.

`CC(C)[C@H](NS(=O)(=O)C(F)(F)F)C(=O)N1C[C@H]2[C@@H]([C@H]1C(=O)N[C@@H](C[C@@H]1CCNC1=O)C(=O)COc1cc(C(F)(F)F)nn1C)C2(C)C` [Example 11, (1R,2S,5S)-6,6-dimethyl-N-{(2S)-4-{[1-methyl-3-(trifluoromethyl)-1H-pyrazol-5-yl]oxy}-3-oxo-1-[(3S)-2-oxopyrrolidin-3-yl]butan-2-yl}-3-{N-[(trifluoromethyl)sulfonyl]-L-valyl}-3-azabicyclo[3.1.0]hexane-2-carboxamide]: the EC50 in assay [1] (setting [3]) stood at 2030 nM. Further, at SARS-CoV-2 3CL protease (setting [4]), the Ki stood at 13.5 nM.

On to `CC(C)[C@H](NC(=O)C(F)(F)F)C(=O)N1C[C@H]2[C@@H]([C@H]1C(=O)NC(C[C@@H]1CCNC1=O)C(=O)COc1ccc(F)cc1F)C2(C)C` (mixture of isomers) [Example 35, (1R,2S,5S)-N-{(2RS)-4-(2,4-difluorophenoxy)-3-oxo-1-[(3S)-2-oxopyrrolidin-3-yl]butan-2-yl}-6,6-dimethyl-3-[N-(trifluoroacetyl)-L-valyl]-3-azabicyclo[3.1.0]hexane-2-carboxamide], for which, in assay [1] (setting [3]), the EC50 was determined as 93.8 nM. Besides, on SARS-CoV-2 3CL protease (setting [2]), the Ki is 2.76 nM.

Regarding `CC(C)[C@H](NS(=O)(=O)C(F)(F)F)C(=O)N1C[C@H]2[C@@H]([C@H]1C(=O)N[C@@H](C[C@@H]1CCNC1=O)C(=O)COc1cccc(Cl)c1)C2(C)C` [Example 40, (1R,2S,5S)-N-{(2S)-4-(3-chlorophenoxy)-3-oxo-1-[(3S)-2-oxopyrrolidin-3-yl]butan-2-yl}-6,6-dimethyl-3-[N-(trifluoromethanesulfonyl)-L-valyl]-3-azabicyclo[3.1.0]hexane-2-carboxamide], the EC50 in assay [1] (setting [3]) was 112 nM. For the same molecule, the Ki on SARS-CoV-2 3CL protease (setting [2]) is 4.22 nM.

In the case of `CC(C)(C)[C@H](NS(=O)(=O)C(F)(F)F)C(=O)N1C[C@H]2[C@@H]([C@H]1C(=O)N[C@@H](C[C@@H]1CC(O)NC1=O)C(=O)COc1ccc(F)cc1F)C2(C)C` (stereo partly drawn) [Example 38, (1R,2S,5S)-N-{(2S)-4-(2,4-difluorophenoxy)-1-[(3R)-5-hydroxy-2-oxopyrrolidin-3-yl]-3-oxobutan-2-yl}-6,6-dimethyl-3-[3-methyl-N-(trifluoromethanesulfonyl)-L-valyl]-3-azabicyclo[3.1.0]hexane-2-carboxamide], in assay [1] (setting [3]), the EC50 came to 1390 nM. Also, on SARS-CoV-2 3CL protease (setting [2]), the Ki worked out at 4.12 nM.

For `COC(=O)N[C@H](C(=O)N1C[C@H]2[C@@H]([C@H]1C(=O)N[C@@H](C[C@@H]1CCNC1=O)C(=O)COc1ccc(F)cc1F)C2(C)C)C(C)(C)C` [Example 24, methyl {(2S)-1-[(1R,2S,5S)-2-({(2S)-4-(2,4-difluorophenoxy)-3-oxo-1-[(3S)-2-oxopyrrolidin-3-yl]butan-2-yl}carbamoyl)-6,6-dimethyl-3-azabicyclo[3.1.0]hexan-3-yl]-3,3-dimethyl-1-oxobutan-2-yl}carbamate], the EC50 in assay [1] (setting [3]) came out at 17 nM. The Ki at SARS-CoV-2 3CL protease (setting [2]) was determined as 1.41 nM.

With `CC(C)(C)[C@H](NS(=O)(=O)C(F)(F)F)C(=O)N1C[C@H]2[C@@H]([C@H]1C(=O)N[C@@H](C[C@@H]1CCNC1=O)C(=O)COc1ccc(F)cc1F)C2(C)C` [Example 3, (1R,2S,5S)-N-{(2S)-4-(2,4-difluorophenoxy)-3-oxo-1-[(3S)-2-oxopyrrolidin-3-yl]butan-2-yl}-6,6-dimethyl-3-{3-methyl-N-[(trifluoromethyl)sulfonyl]-L-valyl}-3-azabicyclo[3.1.0]hexane-2-carboxamide], the EC50 in assay [1] (setting [3]) came out at 207 nM. For the same molecule, the Ki at SARS-CoV-2 3CL protease (setting [4]) was 3.5 nM.

For `Cc1ccc2nc(OCC(=O)[C@H](C[C@@H]3CCNC3=O)NC(=O)[C@@H]3[C@@H]4[C@H](CN3C(=O)[C@@H](NC(=O)C(F)(F)F)C(C)C)C4(C)C)oc2c1` [Example 72, (1R,2S,5S)-6,6-dimethyl-N-{(2S)-4-[(6-methyl-1,3-benzoxazol-2-yl)oxy]-3-oxo-1-[(3S)-2-oxopyrrolidin-3-yl]butan-2-yl}-3-[N-(trifluoroacetyl)-L-valyl]-3-azabicyclo[3.1.0]hexane-2-carboxamide], the EC50 in assay [1] (setting [3]) was determined as 19000 nM. The Ki at SARS-CoV-2 3CL protease (setting [2]) worked out at 505 nM.

With `CC[C@@H]([C@H](NS(=O)(=O)C(F)(F)F)C(=O)N1C[C@H]2[C@@H]([C@H]1C(=O)N[C@@H](C[C@@H]1CCNC1=O)C(=O)COc1ccc(F)cc1F)C2(C)C)C(F)(F)F` [Example 70, (1R,2S,5S)-N-{(2S)-4-(2,4-difluorophenoxy)-3-oxo-1-[(3S)-2-oxopyrrolidin-3-yl]butan-2-yl}-6,6-dimethyl-3-[3′,3′,3′-trifluoro-N-(trifluoromethanesulfonyl)-L-isoleucyl]-3-azabicyclo[3.1.0]hexane-2-carboxamide], the EC50 in assay [1] (setting [3]) was 5440 nM. Moreover, on SARS-CoV-2 3CL protease (setting [2]), the Ki was 203 nM.

Regarding `COC(=O)N[C@H](C(=O)N1C[C@H]2[C@@H]([C@H]1C(=O)N[C@@H](C[C@@H]1CCNC1=O)C(=O)COc1cccc(C(F)(F)F)c1)C2(C)C)C(C)(C)C` [Example 17, methyl {(2S)-1-[(1R,2S,5S)-6,6-dimethyl-2-({(2S)-3-oxo-1-[(3S)-2-oxopyrrolidin-3-yl]-4-[3-(trifluoromethyl)phenoxy]butan-2-yl}carbamoyl)-3-azabicyclo[3.1.0]hexan-3-yl]-3,3-dimethyl-1-oxobutan-2-yl}carbamate], the EC50 in assay [1] (setting [3]) was determined as 13.3 nM. Further, at SARS-CoV-2 3CL protease (setting [2]), the Ki is < 0.443 nM.
